Experimental data taken from patent EP0089635A2, “Phospholipid derivatives, process for preparation thereof and pharmaceutical composition of the same” (FUJISAWA PHARMACEUTICAL CO., LTD., priority 1982, dated 1983).

How the values were obtained:
Assay type in all cases: in vivo, BALB/c mice
Fibrosarcoma Meth-A = experiment: Test Method A: antitumor effect on intradermally inoculated Meth-A tumor, intratumoral injection of test compound; conditions: 100 µg/mouse intratumorally once daily Day 1 to Day 4; for Tumor growth inhibition (%) *b: (1-T/C)x100 of mean tumor diameter on Day 21; for Mean tumor size (mm) *a: female BALB/c mice, 1 x 10^5 Meth-A cells intradermally, mean diameter of tumor on Day 21; for Ratio of tumor free mice *c: groups of six mice
Procedure: Fibrosarcoma Meth-A (hereinafter referred to as Meth-A) was successively transferred every 7 days into BALB/c mice by intraperitoneal inoculation of the ascites cells thereof and the Meth-A in the ascites cells as harvested 6 days after the inoculation was used as tumor cells.
Each of the BALB/c mice was inoculated intradermally with 1 x 10^5 Meth-A cells in 0.05 ml Hanks solution.
(§1) The control group was given with a vehicle alone in the same way.
The antitumor effectiveness of the test compound was estimated by tumor growth inhibition : (1-T/C)x100. • T : Mean diameter of the growing tumor of the medicated group on Day 21. • C : Mean diameter of the growing tumor of the control group on Day 21.

[1] = Test Method A: body weight of the treated mice; conditions: 100 µg/mouse intratumorally once daily Day 1 to Day 4; for Body weight of mice (g) Day 0 *d: initial day
Procedure: Groups of six female BALB/c mice, aged 12 weeks and weighing 19 - 21 g were used. Test compound was dissolved in 0.5% methylcellulose saline solution, and was intratumorally injected to each of the mice in doses of 100 µg/mouse once daily from Day 1 to Day 4 postimplant. Body weight was checked on initial day and Day 4.

Fibrosarcoma Meth A = experiment: Test Method B: survival of mice inoculated intrapleurally with Meth A, injection of test compound into pleural cavity; design: dose or concentration left out as unconfirmed; conditions: for Anti-tumor activity (%) *f: T/C x 100 of mean survival time, into pleural cavity three times; for Mean survival time: female BALB/c mice, Meth A cells intrapleurally, into pleural cavity three times (before 14 days, after 1 hour, after 3 days of tumor implantation)
Procedure: Groups of eight female BALB/c mice, aged 8-9 weeks and weighing 18.0-22.5 g were used.
Fibrosarcoma Meth A (hereinafter referred to as Meth A) was successively transferred every 7 days into BALB/c mice by intraperitoneal inoculation of the ascites cells thereof and the Meth A in the ascites cells as harvested 6 or 7 days after the inoculation was used as tumor cells.
Each of the BALB/c mice was inoculated intrapleurally with 5 x 10 Meth A cells in 0.1 ml Hanks solution.
Test compound was dissolved in phosphate buffer saline solution, and was injected into pleural cavity to each of the mice in doses of 100 pg/0.05 ml/mouse three times, i.e. before 14 days, after I hour and after 3 days of tumor implantation.
as §1
The antitumor activity of the test compound was estimated by comparing mean survival time of the two groups. • T : Mean survival time of the medicated group • C : Mean survival time of the control group

Row | SMILES | Tumor growth inhibition (%) *b (Fibrosarcoma Meth-A) [%] | Mean tumor size (mm) *a (Fibrosarcoma Meth-A) [mm] | Ratio of tumor free mice *c (Fibrosarcoma Meth-A) | Body weight of mice (g) Day 4 *e [1] [g] | Body weight of mice (g) Day 0 *d [1] [g] | Anti-tumor activity (%) *f (Fibrosarcoma Meth A) [%] | Mean survival time (Fibrosarcoma Meth A) [days]
1 | CCCCCCCCCCCCCCCCCCOCC(COP(=O)([O-])OCC[n+]1ccccc1)OC(=O)NC (racemic) [Example 1 - (4), (rac)-1-O-octadecyl-2-O-methylcarbamoyl-glycerol-3-[2-(1-pyridinio)ethyl]-phosphate] | 100 | 0 | 6/6 | 19.1 ± 1.68 | 18.3 ± 1.11 |  | 
2 | CCCCCCCCCCCCCCCCCCOCC(COP(=O)([O-])OCC[n+]1ccccc1)OC(=O)Nc1ccccc1 (racemic) [Example 2 - (4), (rac)-1-O-Octadecyl-2-O-phenylcarbamoyl-glycerol-3-[2-(l-pyridinio)ethyl]phosphate] |  |  |  |  |  | 117 | 7.0
3 | CCCCCCCCCCCCCCCCCCOCC(COP(=O)([O-])OCC[n+]1ccccc1)OC(N)=O (racemic) [Example 3 - (4), (rac)-1-O-0ctadecyl-2-O-carbamoyl-glycerol-3-[2-(1-pyridinio)ethyl]phosphate] |  |  |  |  |  | 536 | 37.5
4 | CCCCCCCCCCCCCCCCCCOCC(COP(=O)(O)OCCN1CCN(C)CC1)OC(N)=O (racemic) [Example 4, (rac)-l-O-Octadecyl-2-0-carbamoyl-glycerol-3-[2-(4-methyl-l-piperazinyl)ethyl]phosphate] | 100 | 0 | 6/6 | 20.2 ± 1.11 | 19.5 ± 0.60 | 236 | 16.5
